From article PMC7866984, “Molecular Structure, In Vitro Anticancer Study and Molecular Docking of New Phosphate Derivatives of Betulin” (Molecules, 2021)
Where two headings read alike, the source gives them in different places.

Tests used:
[1] = system: amelanotic melanoma (C-32) cells; conditions: cited from earlier work
[2] = system: glioblastoma (SNB-19) cells; conditions: cited from earlier work
[3] = system: breast cancer T47D cells; conditions: cited from earlier work
[4] = system: amelanotic melanoma (C-32) cells; test: WST-1 cell viability assay, C-32; format: cell-based, human; conditions: WST-1, 72 h, read-out: IC50 ± SD, C-32
Procedure: (§1) Evaluation of the effect of new betulin derivatives on the viability of the cultured cells was performed using the WST-1(water soluble tetrazolium salt) assay. Betulin 1 and cisplatin were used as the reference compounds.
(§2) The synthesized compounds and references were tested for cytotoxic activity in vitro against human cancer cell lines such as amelanotic melanoma (C-32, ATCC, Rockville, MD, USA), glioblastoma (SNB-19, DSMZ, Braunschweig, Germany), and breast cancer (T47D, and MDA-MB-231, ATCC, Rockville, MD, USA). Cell cultures were maintained using DMEM (Lonza, Basel, Switzerland) supplemented with 10% fetal bovine serum (FBS) (Biological Industries Cromwell, CT, USA) and penicillin (10,000 U/mL) –streptomycin (10 mg/mL) mix (Lonza, Basel, Switzerland).
(§3) Cultures were performed in 96-well plates (Nunc Thermo Fisher Scientific, Waltham, MA, USA). Cells were seeded at 5 × 10^4/well and incubated for 24 h (at 37 °C, 5% CO2, constant humidity). Then, the medium was replaced with a fresh one with the addition of test compounds in the concentration: 25; 12.5; 6.25; 3.12; 1.56; 0.78; 0.39; 0 µg/mL and incubated again for a further 72 h. After this time, the WST-1 test (Roche Molecular Biochemicals, Mannheim, Germany) was performed to assess the metabolic activity of the cells. The principle of the WST-1 colorimetric test is based on the ability of live cells to decompose bright red tetrazole salts of WST-1 to dark red formazan. The reaction is mediated by mitochondrial dehydrogenases and correlates with the number of cells and their metabolic activity. The absorbance was measured at λ = 450 nm with a UVM340 microplate reader (Biogenet, Józefów, Poland). Results were expressed as a mean value of at least three independent experiments performed in triplicate.

[5] = system: glioblastoma (SNB-19) cells; test: WST-1 cell viability assay, SNB-19; format: cell-based, human; conditions: WST-1, 72 h, read-out: IC50 ± SD, SNB-19
Procedure: as §1, §2, §3

[6] = system: breast cancer T47D cells; test: WST-1 cell viability assay, T47D; format: cell-based, human; conditions: Homo sapiens, T47D, 72 h, read-out: IC50 ± SD, T47D
Procedure: as §1, §2, §3

[7] = system: breast cancer MDA-MB-231 cells; test: WST-1 cell viability assay, MDA-MB-231; format: cell-based, human; conditions: Homo sapiens, MDA-MB-231, 72 h, read-out: IC50 ± SD, MDA-MB-231
Procedure: as §1, §2, §3

[8] = RP-TLC experimental lipophilicity; format: physicochemical; conditions: for RM0 / logPTLC: RP-TLC; for RM0: acetone/Tris buffer pH 7.4, extrapolated to zero acetone; for logPTLC: from RM0 by calibration equation; for -b: slope of regression plot RM = RM0 + bC
Text: Lipophilicity is an important physicochemical parameter related to the biological activity of compounds. This descriptor, contained in Lipiński’s rule of five, concerns the transport of a compound through the biological membrane system and the formation of a compound–receptor complex. To assess the lipophilic nature of triterpenoids 3–5, 6a–6e, and 7a–7e, the reverse phase chromatography (RP-TLC) method was used (chromatographic procedure by RP-TLC is included in the Supplementary Materials). The theoretical characteristics of the chromatographic parameters (RM0, log PTLC) of the tested derivatives were also performed. […]
Chromatographic procedure by RP-TLC
The experimental lipophilicity parameters was determined using reversed-phase thin-layer chromatography (RP-TLC). The stationary phase was an aluminium backed silica gel RP-18 F254 S plates (Merck, Darmstadt, Germany). Chloroform solutions of reference compounds […]
(acetanilide, 4-bromoacetophenone, benzophenone, anthracene, DDT) and triterpenes 3-5, 6a-6e and 7a-7e were spotted on to the plates in the amount of 2 µL. The chromatograms were performed in triplicate for each compound. The chromatographic chambers were filled of mobile phases consisting of a mixture of acetone (POCh, Gliwice, Poland) and aqueous solution of buffer Tris [(tris-hydroxymethyl)aminomethane] (Fluka, Loughborough, 0.2 M, pH 7.4). The percent acetone volume was varied within the range of 90-60%, in 5% increments. The spots of compounds were visualized by spraying the plates with 10% ethanolic solution of sulphuric acid (VI) and heating for 3 min at 110°C [60]]. The RM values were calculated by the equation RM = log (1/Rf-1) on the basis of average Rf values. The RM0 parameters were obtained by extrapolating on the acetone content to zero, according to the equation RM = RM0 + bC (C – the percentage concentration of acetone in the mobile phase, b – the slope of the regression plot).
The experimental lipophilicity as log PTLC for triterpenes 3-5, 6a-6e and 7a-7e was calculated […]
obtained on the correlation between the literature log Plit values and the experimental RM0 values […]
Table S5. The theoretical values of lipophilicity for tested compounds 3-5, 6a-6e and 7a- […]
Table S6. The correlation matrix for theoretically obtained lipophilicity parameters of compounds 3-5, 6a-6e and 7a-7e. […]

[9] = system: histone H3 mRNA in SNB-19 and C-32 cells; test: qRT-PCR expression of H3; format: cell-based, human; conditions: 24 h, half of IC50
Procedure: (§4) In our work, we assessed the influence of the tested compounds on the expression of selected genes related to apoptosis. […] We examined their influence on the transcriptional activity of genes encoding a proliferation marker (histone H3), a cell cycle regulator (p53), and proteins related to the mitochondrial apoptosis pathway (BCL-2 and BAX). The study was performed after 24-h exposure of the cultured cells to the test compounds (half of IC50).
(§5) The influence of tested compounds on the transcriptional activity of cells of the genes H3, TP53, BCL-2, and BAX was investigated. Assays were performed by real-time qRT-PCR on an Opticon TM DNA Engine (MJ Research, USA) using the QuantTect® SYBR® Green qRT-PCR Kit (Qiagen, Valencia, […]). Cells were exposed to compound 7a and 7b for 24 h at a concentration equal to half of IC50 for appropriate cell line. For the reference compound, cisplatin, concentrations were 0.8 µg/mL (SNB-19 line) and 0.6 µg/mL (C-32 line). RNA extraction was performed on spin columns using the Quick RNATM MiniPrep kit (Zymo Research, Irvine, CA, USA). RNA extracts were assessed qualitatively and quantitatively. Total RNA integrity was checked electrophoretically on a 1.2% agarose gel with ethidium bromide. The amount and purity of total RNA in the extracts were determined spectrophotometrically with the HP8452A spectrophotometer (Hewlett Packard, Waldbronn, Germany).

[10] = system: TP53 mRNA in SNB-19 and C-32 cells; test: qRT-PCR expression of TP53; format: cell-based, human; conditions: 24 h, half of IC50
Procedure: as §4, §5

[11] = system: BAX/BCL-2 mRNA in SNB-19 and C-32 cells; test: qRT-PCR BAX/BCL-2 ratio; format: cell-based, human; conditions: 24 h, half of IC50
Procedure: as §4, §5

Structure (SMILES) | IC50 [1] [µM] | IC50 [2] [µM] | IC50 [3] [µM] | IC50 ([4]; Homo sapiens, C32, 72 h) [µM] | IC50 ([5]; Homo sapiens, SNB-19, 72 h) [µM] | IC50 [6] [µM] | IC50 [7] [µM] | RM0 [8] | logPTLC [8] | -b [8] | melting point [°C] | number of mRNA copies of histone H3 gene vs control [9] | number of mRNA copies of TP53 [10] | mRNA copy number BAX to BCL-2 ratio [11] | IC50 [4] [µM] | IC50 [5] [µM]
C#CC(=O)OC[C@]12CC[C@@H](C(=C)C)[C@@H]1[C@H]1CC[C@@H]3[C@@]4(C)CC[C@H](O)C(C)(C)[C@@H]4CC[C@@]3(C)[C@]1(C)CC2 [28-O-propynoylbetulin] | 16.7 | 4.2 | 111 | – | – | – | – | – | – | – | – | – | – | – | – | –
C=C(COP(=O)(OCC)OCC)[C@@H]1CC[C@]2(COC(C)=O)CC[C@]3(C)C(CCC4[C@@]5(C)CC[C@H](OC(C)=O)C(C)(C)C5CC[C@]43C)C12 (stereo partly shown) [Compound 4, 3,28-Diacetoxy-30-diethoxyphosphoryloxybetulin] | – | – | – | 33.9 ± 1.59 | 5.01 ± 0.78 | 1.3 ± 0.13 | 14.5 ± 1.37 | 5.740 | 7.470 | 0.064 | 61 to 63 | – | – | – | – | –
C=C(COP(=O)(OCC)OCC)C1CCC2(CO)CCC3(C)C(CCC4C5(C)CCC(O)C(C)(C)C5CCC43C)C12 (stereo not shown) [Compound 5, 30-Diethoxyphosphoryloxybetulin] | – | – | – | 43.5 ± 2.5 | 10.9 ± 1.33 | 1.04 ± 0.14 | 0.4 ± 0.02 | 3.719 | 4.914 | 0.046 | 194 to 195 | – | – | – | – | –
C=C(COP(=O)(OCC)OCC)[C@@H]1CC[C@]2(COC(=O)C#CC)CC[C@]3(C)C(CCC4[C@@]5(C)CC[C@H](OC(=O)C#CC)C(C)(C)C5CC[C@]43C)C12 (stereo partly shown) [Compound 6b, 3,28-Di(2-butynoyl)-30-diethoxyphosphoryloxybetulin] | – | – | – | > 50 | 4.65 ± 0.51 | > 50 | 21.2 ± 1.24 | 6.884 | 8.917 | 0.078 | 66 to 70 | – | – | – | – | –
C=C(COP(=O)(OCC)OCC)[C@@H]1CC[C@]2(COC(=O)C#CC3CC3)CC[C@]3(C)C(CCC4[C@@]5(C)CC[C@H](OC(=O)C#CC6CC6)C(C)(C)C5CC[C@]43C)C12 (stereo partly shown) [Compound 6c, 3,28-Di(2-cyclopropylpropynoyl)-30-diethoxyphosphoryloxybetulin] | – | – | – | > 50 | > 50 | > 50 | > 50 | 6.419 | 8.330 | 0.071 | 67 to 70 | – | – | – | – | –
C=C(COP(=O)(OCC)OCC)[C@@H]1CC[C@]2(COC(=O)C#Cc3ccccc3)CC[C@]3(C)C(CCC4[C@@]5(C)CC[C@H](OC(=O)C#Cc6ccccc6)C(C)(C)C5CC[C@]43C)C12 (stereo partly shown) [Compound 6d, 30-Diethoxyphosphoryloxy-3,28-di(2-phenylpropynoyl)betulin] | – | – | – | 31.5 ± 1.56 | 11.2 ± 0.28 | > 50 | > 50 | 7.877 | 10.174 | 0.086 | 89 to 91 | – | – | – | – | –
C#CC(=O)OC[C@]12CC[C@@H](C(=C)COP(=O)(OCC)OCC)C1C1CCC3[C@@]4(C)CC[C@H](O)C(C)(C)C4CC[C@@]3(C)[C@]1(C)CC2 (stereo partly shown) [Compound 7a, 30-Diethoxyphosphoryloxy-28-propynoylbetulin] | – | – | – | 2.15 ± 0.22 | 0.91 ± 0.09 | 2.61 ± 0.42 | 6.2 ± 0.22 | 5.318 | 6.937 | 0.062 | 177 to 180 | reduced the number of mRNA copies of the histone H3 gene | increase the number of mRNA copies of TP53 | increased the mRNA copy number to BAX and BCL-2 ratio | – | –
C=C(COP(=O)(OCC)OCC)[C@@H]1CC[C@]2(COC(=O)C#CC)CC[C@]3(C)C(CCC4[C@@]5(C)CC[C@H](O)C(C)(C)C5CC[C@]43C)C12 (stereo partly shown) [Compound 7b, 28-(2-Butynoyl)-30-diethoxyphosphoryloxybetulin] | – | – | – | 0.76 | 0.8 | 15.4 ± 0.51 | 4.93 ± 0.44 | 5.431 | – | 0.063 | 133 to 136 | reduced the number of mRNA copies of the histone H3 gene | increase the number of mRNA copies of TP53 | increased the mRNA copy number to BAX and BCL-2 ratio | 0.8 ± 0.03 | 0.76 ± 0.14
C=C(COP(=O)(OCC)OCC)[C@@H]1CC[C@]2(COC(=O)C#CC3CC3)CC[C@]3(C)C(CCC4[C@@]5(C)CC[C@H](O)C(C)(C)C5CC[C@]43C)C12 (stereo partly shown) [Compound 7c, 28-(2-Cyclopropylpropynoyl)-30-diethoxyphosphoryloxybetulin] | – | – | – | 11.9 ± 0.52 | 6.29 ± 0.12 | > 50 | 9.11 ± 0.39 | 5.587 | 7.277 | 0.064 | 133 to 134 | – | – | – | – | –
C=C(COP(=O)(OCC)OCC)[C@@H]1CC[C@]2(COC(=O)C#Cc3ccccc3)CC[C@]3(C)C(CCC4[C@@]5(C)CC[C@H](O)C(C)(C)C5CC[C@]43C)C12 (stereo partly shown) [Compound 7d, 30-Diethoxyphosphoryloxy-28-(2-phenylpropynoyl)betulin] | – | – | – | 6.9 ± 0.4 | 4.38 ± 0.04 | 9.47 ± 0.03 | > 50 | 6.145 | 7.982 | 0.070 | 131 to 134 | – | – | – | – | –
